Data: patent publication US5891896A, “Tri-substituted phenyl derivatives useful as PDE IV inhibitors” (Celltech Therapeutics Ltd., priority 1995, dated 1999)
Counter-ions that a name gives are not always drawn.

Legend:
human PDE IVA = molecular target: T1, human PDE IVA (Homo sapiens, UniProt P27815); experiment: Isolated recombinant human PDE IVA enzyme, inhibition of phosphodiesterase activity ([3H]-cAMP); assay type: biochemical; conditions: 0.1 μM [3H]-cAMP, pH 7.5, 30° C.
T1 construct: made in house; host or cells: yeast (inducible vector)
Description: 1. Isolated Recombinant Human PDE IVA Enzyme
A gene encoding human PDE IV has been cloned from human monocytes (Livi, et al., 1990, Molecular and Cellular Biology, 10, 2678). Using similar procedures we have cloned human PDE IV genes from a number of sources including eosinophils, neutrophils, lymphocytes, monocytes, brain and neuronal tissues. These genes have been transfected into yeast using an inducible vector and various recombinant proteins have been expressed which have the biochemical characteristics of PDE IV (Beavo and Reifsnyder, 1990, TIPS, 11, 150). These recombinant enzymes, particularly the human eosinophil recombinant PDE IVA, have been used as the basis of a screen for potent, selective PDE IV inhibitors.
The enzymes were purified to isoenzyme homogeneity using standard chromatographic techniques.
Phosphodiesterase activity was assayed as follows. The reaction was conducted in 150 μl of standard mixture containing (final concentrations): 50 mM 2-[[tris(hydroxymethyl)methyl]amino]-1-ethanesulphonic acid (TES) --NaOH buffer (pH 7.5), 10 mM MgCl2, 0.1 μM [^3 H]-cAMP and vehicle or various concentrations of the test compounds. […] Recovery of [^3 H]-5'AMP was determined using the [^14 C]-5'AMP and all assays were conducted in the linear range of the reaction. Results were expressed as IC50 values.

rat hepatocytes = experiment: Rat hepatocyte metabolism (compound remaining, mass spectroscopy); assay type: in vitro ADME
Protocol: (§1) 2. Rat Hepatocyte Metabolism
(§2) The quantity of compound remaining after a fixed period of time was then determined using mass spectroscopy.

[1] = as above; assay type: in vitro ADME; conditions: rat hepatocytes, read-out: compound remaining at the end of the period
Protocol: as §1, §2

T1 sequence (P27815 whole entry): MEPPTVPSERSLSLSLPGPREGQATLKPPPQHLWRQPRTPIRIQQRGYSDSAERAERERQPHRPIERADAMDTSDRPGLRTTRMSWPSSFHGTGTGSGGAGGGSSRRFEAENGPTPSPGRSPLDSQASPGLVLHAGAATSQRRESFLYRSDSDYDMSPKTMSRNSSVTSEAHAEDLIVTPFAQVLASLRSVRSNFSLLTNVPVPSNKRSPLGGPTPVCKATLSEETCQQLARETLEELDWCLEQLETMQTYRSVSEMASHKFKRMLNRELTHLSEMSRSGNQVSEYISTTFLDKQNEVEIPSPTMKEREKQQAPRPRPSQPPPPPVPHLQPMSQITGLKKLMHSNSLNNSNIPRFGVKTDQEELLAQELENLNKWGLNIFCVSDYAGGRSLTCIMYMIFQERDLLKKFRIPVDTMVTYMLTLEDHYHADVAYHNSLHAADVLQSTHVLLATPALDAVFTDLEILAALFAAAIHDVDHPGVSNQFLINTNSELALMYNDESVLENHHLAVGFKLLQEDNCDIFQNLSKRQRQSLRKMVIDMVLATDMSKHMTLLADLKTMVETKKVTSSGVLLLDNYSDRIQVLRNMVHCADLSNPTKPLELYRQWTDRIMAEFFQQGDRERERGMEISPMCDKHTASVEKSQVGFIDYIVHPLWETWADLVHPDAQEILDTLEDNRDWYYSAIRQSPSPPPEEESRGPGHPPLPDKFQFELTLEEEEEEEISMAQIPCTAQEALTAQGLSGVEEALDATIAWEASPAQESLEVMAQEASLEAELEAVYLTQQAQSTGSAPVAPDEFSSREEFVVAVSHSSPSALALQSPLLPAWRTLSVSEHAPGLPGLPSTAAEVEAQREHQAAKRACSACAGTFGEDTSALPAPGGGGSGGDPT

| Molecule | IC50 (human PDE IVA) | metabolism after 3 h (in words) (rat hepatocytes) | remaining at 3 h [1] | compound remaining at the end of the period (rat hepatocytes; 3 h) |
| --- | --- | --- | --- | --- |
| COc1ccc([C@H](Cc2ccncc2)c2cccc(NS(=O)(=O)c3ccccc3)c2)cc1OC1Cc2ccccc2C1 [Example 2, hydrochloride] | 2 nM | substantially unmetabolised | ≥ 80% |  |
| (R)-N-[4-{1-(3-(2-Indanyloxy)-4-methoxyphenyl)-2-(4-pyridyl)ethyl}phenyl]-N'-ethylurea hydrochloride [Example 3] | 34 nM | substantially unmetabolised |  | ≥ 80% |
